Data from patent US10335374B2, “Tablet composition for anti-tuberculosis antibiotics” (priority 2014, dated 2019).
In brackets after ≈: the same amount, converted by molar mass.

What was measured:
Test in all cases: microbe, parasite or virus in culture
Assay type in all cases: cell-based, M. tuberculosis
[1] = tested on: ofloxacin-resistant strain; conditions: Mycobacterium tuberculosis
[2] = tested on: isoniazid-resistant strain; conditions: Mycobacterium tuberculosis
[3] = tested on: rifampin-resistant strain; conditions: Mycobacterium tuberculosis
[4] = tested on: INH-R1 (isoniazid resistant)
[5] = tested on: INH-R2 (isoniazid resistant)
[6] = tested on: RIF-R1 (rifampicin resistant); conditions: Mycobacterium tuberculosis
[7] = tested on: RIF-R2 (rifampicin resistant); conditions: Mycobacterium tuberculosis
[8] = tested on: FQ-R1 (fluoroquinolone resistant); conditions: Mycobacterium tuberculosis

SMILES	MIC [1]	MIC [2]	MIC [3]	MIC ([4]; Mycobacterium tuberculosis)	MIC ([4]; Resistant Isolate INH-R1, isoniazid-sucrose series)	MIC ([5]; Mycobacterium tuberculosis)	MIC ([5]; Resistant Isolate INH-R2, isoniazid-sucrose series)	MIC [6]	MIC [7]	MIC [8]
NCC[C@H](O)C(=O)N[C@@H]1C[C@H](N)[C@@H](O[C@H]2O[C@H](CN)[C@@H](O)[C@H](O)[C@H]2O)[C@H](O)[C@H]1O[C@H]1O[C@H](CO)[C@@H](O)[C@H](N)[C@H]1O [amikacin]	0.256 µM (≈ 0.15 µg/mL)	2.05 µM (≈ 1.2 µg/mL)	0.256 µM (≈ 0.15 µg/mL)							
NNC(=O)c1ccncc1 [Isoniazid (INH), isoniazid]				> 200 µM	>200 µM	> 200 µM	>200 µM			
CO[C@H]1/C=C/O[C@@]2(C)Oc3c(C)c(O)c4c(O)c(c(/C=N/N5CCN(C)CC5)c(O)c4c3C2=O)NC(=O)/C(C)=C\C=C\[C@H](C)[C@H](O)[C@@H](C)[C@@H](O)[C@@H](C)[C@H](OC(C)=O)[C@@H]1C [rifampicin]				0.02 µM (≈ 0.0165 µg/mL)		0.0075 µM (≈ 0.00617 µg/mL)		12.4 µM (≈ 10.2 µg/mL)	> 200 µM	0.017 µM (≈ 0.014 µg/mL)
